Results as given in patent publication US9642789B2, “Methods for generating new hair follicles, treating baldness, and hair removal” (THE TRUSTEES OF THE UNIVERSITY OF PENNSYLVANIA, priority 2005, dated 2017).
“Also recorded” adds a separate entry of the source.

Target: T1, EGF receptor (Mus musculus, UniProt Q01279)
T1 construct: from tissue; host or cells: healing skin wound of live mice
Test: EDIHN after single injection of EGF receptor inhibitor into wound
Assay type: in vivo, mice
Settings: 150 μM in 10 μL, single injection 11 days after 1 cm^2 incisional wounding; K17 and AP staining
Procedure: To determine the effect of administration of EGF receptor inhibitors on DIHN, the inhibitor AG1478 (150 μM in 10 μL volume) was administered as a single injection 11 days after incisional wounding (1 cm^2) to the middle of the wound near the skin surface. […] Left panel: epidermis stained for K17, with three large hair follicles next to each other. Right panel: dermis stained for AP with large coalescing dermal papilla areas.

T1 sequence (Q01279 25-1210): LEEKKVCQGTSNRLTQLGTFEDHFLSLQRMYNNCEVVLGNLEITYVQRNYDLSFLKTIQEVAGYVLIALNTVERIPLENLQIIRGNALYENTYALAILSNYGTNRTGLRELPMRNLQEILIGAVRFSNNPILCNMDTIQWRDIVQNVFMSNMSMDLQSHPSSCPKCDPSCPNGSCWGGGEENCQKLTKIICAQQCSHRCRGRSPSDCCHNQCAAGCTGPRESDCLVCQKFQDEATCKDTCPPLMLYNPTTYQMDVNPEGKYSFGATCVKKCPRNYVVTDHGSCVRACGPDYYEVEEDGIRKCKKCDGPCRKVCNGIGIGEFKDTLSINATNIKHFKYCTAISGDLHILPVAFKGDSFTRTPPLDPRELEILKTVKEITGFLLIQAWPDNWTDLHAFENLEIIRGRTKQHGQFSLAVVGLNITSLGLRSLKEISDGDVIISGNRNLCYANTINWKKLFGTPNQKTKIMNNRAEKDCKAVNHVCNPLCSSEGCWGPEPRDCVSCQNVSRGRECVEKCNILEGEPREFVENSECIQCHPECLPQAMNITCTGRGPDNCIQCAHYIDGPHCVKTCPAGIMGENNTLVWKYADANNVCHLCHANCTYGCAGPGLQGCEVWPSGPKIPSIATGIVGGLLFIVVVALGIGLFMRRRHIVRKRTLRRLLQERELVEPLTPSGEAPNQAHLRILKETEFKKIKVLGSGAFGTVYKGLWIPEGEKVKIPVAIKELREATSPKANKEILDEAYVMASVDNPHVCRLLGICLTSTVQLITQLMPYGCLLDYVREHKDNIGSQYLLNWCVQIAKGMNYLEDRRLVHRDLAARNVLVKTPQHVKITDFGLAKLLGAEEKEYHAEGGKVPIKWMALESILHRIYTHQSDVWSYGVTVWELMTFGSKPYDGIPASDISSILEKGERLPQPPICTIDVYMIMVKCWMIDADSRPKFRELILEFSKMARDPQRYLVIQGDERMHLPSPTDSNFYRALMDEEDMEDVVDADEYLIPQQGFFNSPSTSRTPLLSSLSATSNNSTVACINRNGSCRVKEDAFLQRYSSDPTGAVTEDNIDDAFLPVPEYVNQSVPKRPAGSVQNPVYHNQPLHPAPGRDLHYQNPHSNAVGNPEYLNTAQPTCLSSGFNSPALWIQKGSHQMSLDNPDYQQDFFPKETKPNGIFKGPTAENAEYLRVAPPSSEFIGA

COc1cc2ncnc(Nc3cccc(Cl)c3)c2cc1OC [AG1478]
number and size of hair follicles generated compared with control mice wounded only: more and larger hair follicles; also recorded: more and larger HF
